Patent US20160039852A1, “THERAPEUTIC USES OF BISPHOSPHONATES” (THE UNIVERSITY OF SHEFFIELD, priority 2013, published 2016)
“Also recorded” adds a separate entry of the source.

Assays:
[1] = tested on: human mesenchymal stem cells (hMSC); experiment: Expression of osteogenic and adipogenic differentiation markers in hMSC; assay type: cell-based; conditions: CBFA-1, OPN, ALP, OC, LPL, PPAR-γ normalised to L-32; 14 days supplements
[2] = tested on: human mesenchymal stem cells (hMSC); experiment: Immunostaining of γH2AX DNA damage foci (double stranded breaks) in hMSC; assay type: cell-based
Experimental: DNA damage was induced by exposing hMSC to ^137Cs Gamma source. Cells were washed with PBS and fixed with 4% Para-formaldehyde for […]. Cells were then washed with PBS permeabilized with 0.5% Triton-X (Sigma, UK) for […] and blocked with 5% normal goat serum (DAKO, Glostrup, Denmark) in PBS for 1 hr. This was followed by incubation with primary antibody, anti-phospho histone H2AX (Ser139) (Millipore, Massachusetts, USA) used at 1:800 in 5% normal goat serum, overnight at 4° C. Cells were then washed in PBS and incubated in secondary Anti mouse IgG Fluorescein Isothiocyanate (FITC) conjugated (Insight Biotechnology, Santa Cruz, USA) at 1:200 in PBS for 1 hour at room temperature. The cover-slips were mounted on slides with mounting media (VectaShield) containing 4',6-diamidino-2-phenylindole (DAPI) to stain the nuclei. […] Cells were viewed using in an Inverted Zeiss LSM 510 NLO microscope equipped with Argon (Ar) laser (488 nm) 30 mW to image the fluorescent marker FITC and UV lamp to image DAPI stained nuclei. Five to seven fields consisting of 25 cells in total were randomly selected from a tile scan (20×) and individual cells viewed at 63× were then scored for γH2AX DNA damage foci using ImageJ 1.45 software (http://rsbweb.nih.gov/ij/). One of the factors affecting cellular lifespan is accumulation of DNA damage.

unprenylated Rap1A [3] = experiment: Western blot of unprenylated Rap1A in hMSC; assay type: cell-based, human; conditions: hMSC exposed to increasing amounts of Zol
Experimental: (§1) Three times 10^6 hMSC were lysed in mammalian cell lysis buffer (Mammalian cell lysis kit, Sigma-Aldrich, Dorset, UK) containing 250 mM Tris-5 mM EDTA, 750 mM sodium chloride, 0.5% sodium dodecyl sulphate, 2.5% deoxycholic acid and 5% Igepal supplemented with 10 μl of Proteinase inhibitors cocktail (Sigma-Aldrich, Dorset, UK) containing 4-(2-aminoethyl) benzenesulfonyl fluoride (AEBSF), pepstatin A, bestatin, leupeptin, aprotinin and trans-epoxysuccinyl-L-leucyl-amido(4-guanidino)-butane (E-64) according to manufacturer instruction. Phosphatase inhibitor cocktail (Sigma) was also added when preparing lysates for the detection of AKT, pAKT, P70S6K, and p-P70S6K.
Protein lysates (50 μg) were diluted in equal volume of 2× Laemmli buffer (Gibco) containing Dithiothreitol (DTT, Sigma,UK). The samples were heated at 95° C. for 5 minutes and loaded on a 12% Tris-glycine gel. […] Detection was carried out using enhanced chemi-luminescence plus ECL reaction kit (GE Healthcare, Buckinghamshire, UK) and quantification of protein expression was carried out using image J software.
(FPPS) enzyme in the mevalonate pathway and thereby reducing prenylation of small GTPases, such as Rap, Rac, Rho, Rheb (FIG. 3A). […] To this end, levels of unprenylated Rap1A were measured in hMSC exposed to increasing amounts of Zol.

unprenylated RAP1A [4] = experiment: Western blot of unprenylated RAP1A in cancer lines; assay type: cell-based, human and murine; conditions: Zol (1 μM) for 72 h
Experimental: (A) A representative example of western blot analysis of human mesenchymal stem cells (MSC) and human and murine prostate cancer cell lines (human: PC3, murine 178-2 BMA), human breast cancer cell line (MDA-MB231), murine multiple myeloma cancer lines (5TGM1 and 5T33) cultured in presence or absence of Zol (1 μM) for 72 h and assessed for the expression of unprenylated RAP1A and GAPDH.
(§2) Protein lysates (50 μg) were diluted in equal volume of 2× Laemmli buffer (Gibco) containing Dithiothreitol (DTT, Sigma,UK). The samples were heated at 95° C. for 5 minutes and loaded on a 12% Tris-glycine gel. After electro-blotting, membranes were blocked with 5% Bovine serum albumin (BSA) in 0.1% Tween 20 in PBS (PBS-T) for detection of glyceraldehyde-3-phosphate dehydrogenase (GAPDH) and 5% dry milk in PBS-T for detection of unprenylated RAP1A (Santacruz Biotechnology, Santa Cruz, USA). In case of P-AKT, P-70S6K membranes were blocked with 5%BSA in 1× tris buffered saline and 0.1% tween-20 (TBS-T), where for AKT and P70S6K membranes were blocked with 5% dry milk in TBS-T. All membranes were blocked for 2 hours at room temperature. […] Detection was carried out using enhanced chemi-luminescence plus ECL reaction kit (GE Healthcare, Buckinghamshire, UK) and quantification of protein expression was carried out using image J software.

mTOR pathway [5] = experiment: Western blot of mTOR pathway effectors in hMSC; assay type: cell-based, human
Experimental: as §1
as §2, with “temperature. The antibody sc1482 for the detection of RAP1A (Santacruz, USA) was diluted in TBS-T at 1:1000. Antibodies for the detection of AKT, P-AKT, P-70S6K AND PP70S6K, (Cell Signalling Technologies, USA) were diluted at 1:1000. GAPDH antibody (Abcam, Cambridge) was diluted at 1:30000.” for “temperature.”
(§3) To test this, the inventors assessed the phosphorylation state of two effectors downstream of TORC1 and TORC2, p-P70S6K and pAKT (Ser473) respectively (FIG. 7A), in hMSC in presence or absence of Zol. […]

mTOR pathway [6] = experiment: Western blot of mTOR pathway effectors in osteosarcoma line MG63; assay type: cell-based, human; conditions: MG63, Zol (1 μM) for 72 h, n=3
Experimental: (B) A representative example of human mesenchymal stem cells (MSC) and human osteosarcoma cell line MG63 cultured in presence or absence of Zol (1 μM) for 72 h and assessed for the expression of phosphorylated (Ser 473) AKT, AKT, phosphorylated p70S6K p70S6K and GAPDH by western blot;
as §2, with “USA).” for “USA). In case of P-AKT, P-70S6K membranes were blocked with 5%BSA in 1× tris buffered saline and 0.1% tween-20 (TBS-T), where for AKT and P70S6K membranes were blocked with 5% dry milk in TBS-T. All membranes were blocked for 2 hours at room temperature.”
as §3

[7] = hMSC exposed to Zol (1 μM) for 72 h, n=3

**Q.** Which “expression of osteogenic and adipogenic differentiation markers” value [1] does the source give for `O=P(O)(O)C(O)(Cn1ccnc1)P(=O)(O)O` [Zoledronate] here?
**A.** increased

**Q.** And the “DNA repair (γH2AX DNA damage foci), FIG. 9” value ([2]; 1 μM, 4 hours after irradiation, Compound C compared with Zol)?
**A.** significant decrease

**Q.** And the “number of γH2AX DNA damage foci after irradiation” value ([2]; 1Gy irradiation, compound at 1 μM, foci at 4 h (Zol also 12, 24 h) versus PBS, listed as Zol)?
**A.** significant decrease; also recorded: significant reduction

**Q.** What about the “number of γH2AX DNA damage foci after irradiation” value ([2]; 3 and 5Gy irradiation (data not shown)) of the same compound?
**A.** significant decrease

**Q.** And the “number of γH2AX DNA damage foci, dose response” value ([2]; increasing dosing with Zol)?
**A.** reduced number of DNA damage foci

**Q.** What about the “incidence of DNA damage foci with passage” value ([2]; passage 3 (early) and p10 (late), no irradiation, listed as Zol) of the same compound?
**A.** significantly higher in untreated hMSC; also recorded: reduced

**Q.** What about the “expression of unprenylated Rap1A” value (unprenylated Rap1A [3]) of the same compound?
**A.** increased expression

**Q.** And the “mevalonate pathway (unprenylated RAP1A)” value (unprenylated RAP1A [4])?
**A.** inhibition of mevalonate pathway

**Q.** And the “mTOR signaling (p-mTOR, p-P70S6K, p-AKT, p-FOXO3A), FIG. 12” value (mTOR pathway [5]; hMSC exposed to Zol)?
**A.** inhibition of mTOR signaling

**Q.** What about the p-P70S6K (mTOR pathway [5]; [7]) of the same compound?
**A.** significant decrease

**Q.** And the “pAKT (Ser473)” value (mTOR pathway [5]; [7])?
**A.** significant decrease

**Q.** What about the p-P70S6K (mTOR pathway [6]) of the same compound?
**A.** no significant difference

**Q.** What about the “pAKT (Ser473)” value (mTOR pathway [6]) of the same compound?
**A.** no significant difference
